Measured values as given in patent publication US20090043129A1 (priority 2005, published 2009).
pEC50, pIC50, pKi: −log10 of the molar value. Like-named read-outs stand apart in the source and are kept apart here.

Assays:
[1] = molecular target: T1, human recombinant CB1 receptor (Homo sapiens, UniProt P21554); assay type: binding; parameters: purchased Perkin-Elmer; host or cells: COS cells
[2] = molecular target: T2, Fatty Acid Amide Hydrolase (FAAH) (Rattus norvegicus, UniProt P97612); test: biochemical
T2 sequence (P97612 1-579): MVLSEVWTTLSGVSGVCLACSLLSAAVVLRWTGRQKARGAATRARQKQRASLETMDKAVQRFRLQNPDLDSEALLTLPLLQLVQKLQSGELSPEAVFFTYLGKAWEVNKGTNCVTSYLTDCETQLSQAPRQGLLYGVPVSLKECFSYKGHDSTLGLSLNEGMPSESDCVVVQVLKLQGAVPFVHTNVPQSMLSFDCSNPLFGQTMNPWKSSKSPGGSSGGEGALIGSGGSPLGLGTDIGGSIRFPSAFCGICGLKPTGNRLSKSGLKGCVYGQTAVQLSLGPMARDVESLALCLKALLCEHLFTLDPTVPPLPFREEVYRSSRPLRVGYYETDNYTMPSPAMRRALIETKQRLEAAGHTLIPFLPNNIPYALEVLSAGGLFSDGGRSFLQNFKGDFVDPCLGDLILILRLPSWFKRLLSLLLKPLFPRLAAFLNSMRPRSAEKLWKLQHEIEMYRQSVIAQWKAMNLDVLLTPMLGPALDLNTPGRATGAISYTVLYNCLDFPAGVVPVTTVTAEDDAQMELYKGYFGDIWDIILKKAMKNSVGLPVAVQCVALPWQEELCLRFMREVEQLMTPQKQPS
Procedure: Assay for Fatty Acid Amide Hydrolase (FAAH)
The effect of compounds on the enzymatic hydrolysis of [^14C]anandamide (6 μM) was studied using membranes prepared from rat brain incubated with increasing concentrations of compounds in 50 mM Tris-HCl, pH 9, for 30 minutes at 37° C. (Di Marzo et al., 2002). [^14C]ethanolamine produced from [^14C]anandamide hydrolysis was measured counting the scintillation of the aqueous phase after extraction of the incubation mixture with 2 volumes of CHCl3/CH3OH (2:1 by volume). […]

[3] = system: Anandamide Membrane Transporter (AMT); test: Anandamide uptake by RBL-2H3 cells; assay type: cell-based; conditions: anandamide uptake, read-out: AMT IC50
Procedure: Assay for the Anandamide Membrane Transporter (AMT)
The effect of the compounds on the uptake of anandamide by the RBL-2H3 cells was studied as described (Di Marzo et al., 2002). Cells were incubated with [^14C]anandamide (4 μM) for 5 minutes at 37° C., in the presence or absence of varying concentrations of the inhibitors. Residual [^14C]anandamide in the incubation media after extraction with CHCl3/CH3OH (2:1 by volume) was used as a measure of the anandamide that was taken up by cells. Data are expressed as the concentration that produces 50% of inhibition of anandamide uptake (IC50) calculated with GraphPad.

[4] = molecular target: T3, human recombinant CB2 receptor (Homo sapiens, UniProt P34972); test: CB2 binding, [3H]CP55,940 displacement, membranes from transfected COS cells; parameters: purchased Perkin-Elmer; host or cells: COS cells; conditions: for pKi: recombinant human CB2, COS cell membranes; for Ki: values in nM
T3 sequence (P34972 whole entry): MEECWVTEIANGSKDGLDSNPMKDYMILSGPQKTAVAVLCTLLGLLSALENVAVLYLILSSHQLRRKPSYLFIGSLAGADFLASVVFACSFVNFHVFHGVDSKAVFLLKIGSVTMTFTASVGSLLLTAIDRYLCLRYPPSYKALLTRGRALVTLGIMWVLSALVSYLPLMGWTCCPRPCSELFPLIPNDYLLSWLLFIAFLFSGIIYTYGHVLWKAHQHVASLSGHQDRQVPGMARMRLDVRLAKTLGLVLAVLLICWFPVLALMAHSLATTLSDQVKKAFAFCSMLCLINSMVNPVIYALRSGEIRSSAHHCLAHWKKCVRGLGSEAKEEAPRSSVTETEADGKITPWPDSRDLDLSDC

[5] = molecular target: T4, CB1 (Rattus norvegicus, UniProt P20272); test: Preliminary selection with rat brain membranes; assay type: binding; conditions: rat brain and spleen membranes, read-out: CB1 (n.a. class, IC50 in preliminary selection)
T4 construct: from tissue; host or cells: rat brain membranes
T4 sequence (P20272 whole entry): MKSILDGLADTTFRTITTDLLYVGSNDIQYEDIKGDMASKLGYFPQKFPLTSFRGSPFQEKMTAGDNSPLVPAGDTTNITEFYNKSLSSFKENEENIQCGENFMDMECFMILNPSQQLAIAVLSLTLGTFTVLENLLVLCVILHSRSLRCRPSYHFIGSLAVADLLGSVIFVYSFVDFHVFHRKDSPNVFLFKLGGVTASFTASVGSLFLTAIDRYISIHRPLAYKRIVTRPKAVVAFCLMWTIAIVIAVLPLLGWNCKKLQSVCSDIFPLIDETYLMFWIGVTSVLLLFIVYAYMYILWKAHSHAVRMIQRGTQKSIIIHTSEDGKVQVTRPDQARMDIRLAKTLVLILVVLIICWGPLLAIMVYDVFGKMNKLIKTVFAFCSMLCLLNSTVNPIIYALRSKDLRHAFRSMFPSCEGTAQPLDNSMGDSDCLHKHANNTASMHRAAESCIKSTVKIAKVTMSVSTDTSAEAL

[6] = molecular target: T5, CB2 (Rattus norvegicus, UniProt Q9QZN9); test: Preliminary selection with rat spleen membranes; assay type: binding; conditions: rat brain and spleen membranes, read-out: CB2 (n.a. class, IC50 in preliminary selection)
T5 construct: from tissue; host or cells: rat spleen membranes
T5 sequence (Q9QZN9 1-360): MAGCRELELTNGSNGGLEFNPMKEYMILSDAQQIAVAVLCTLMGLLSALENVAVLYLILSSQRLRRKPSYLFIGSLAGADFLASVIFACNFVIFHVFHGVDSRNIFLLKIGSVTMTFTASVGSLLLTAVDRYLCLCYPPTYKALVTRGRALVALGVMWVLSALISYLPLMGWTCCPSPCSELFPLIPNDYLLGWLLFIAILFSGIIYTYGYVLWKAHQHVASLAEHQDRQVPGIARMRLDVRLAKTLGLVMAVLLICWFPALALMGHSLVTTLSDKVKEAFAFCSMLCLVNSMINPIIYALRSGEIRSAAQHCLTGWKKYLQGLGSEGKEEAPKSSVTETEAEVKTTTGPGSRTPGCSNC

[7] = molecular target: T6, CB1 cannabinoid receptors (Mus musculus, UniProt P47746); test: Forskolin-induced cyclic AMP in N18TG2 neuroblastoma cells; assay type: cell-based; conditions: for functional behaviour at CB1 receptors: cAMP
T6 construct: N18TG2 mouse neuroblastoma cells, which constitutively and selectively express the CB 1 cannabinoid receptors; endogenous in cells; host or cells: N18TG2 mouse neuroblastoma cells
T6 sequence (P47746 whole entry): as the sequence (P20272 whole entry) above, with E95D counted along it
Procedure: (§1) After incubation, 800 μl of methanol were added, cells were extracted and cyclic AMP was determined with a cyclic AMP assay kit (Amersham, UK), in accordance with the supplier's recommendations.

[8] = molecular target: T3, human recombinant CB2 receptor; test: Forskolin-induced cAMP formation in CHO cells over-expressing hCB2; assay type: cell-based; parameters: expressed in transfected cells; host or cells: CHO cells (stably over-expressing)
Procedure: as §1

[9] = molecular target: T7, CB1 receptors (Mus musculus, UniProt P47746); test: [35S]GTP-γ-S binding, mouse brain membranes; assay type: biochemical
T7 construct: using mouse brain membranes containing CB1 receptors; from tissue; host or cells: mouse brain membranes
T7 sequence (P47746 whole entry): as the sequence (P20272 whole entry) above, with E95D counted along it
Procedure: These assays were performed as previously described (Thomas et al., 2005), using mouse brain membranes containing CB1 receptors or CHO cells stably over-expressing the human recombinant CB2 receptor (10 μg/ml protein), 0.7 nM [^35S]GTP-γ-S and 320 μM GDP, and a final assay volume of 250 μl. Results were compared to the potent CB1 and CB2 receptor agonist CP55940, purchased from Cayman Chemicals, Ann Arbour, Mich., USA.

[10] = molecular target: T3, human recombinant CB2 receptor; test: [35S]GTP-γ-S binding, CHO cells over-expressing hCB2; assay type: biochemical; parameters: expressed in transfected cells; host or cells: CHO cells (stably over-expressing); conditions: for antagonism of CP55940-induced stimulation of GTP-γ-S binding (in words) / effect on GTP-γ-S-binding (in words): CHO hCB2; for functional behaviour at CB2 receptors: Test 1 and Test 2, CHO hCB2
Description: Results were compared to the potent CB1 and CB2 receptor agonist CP55940, purchased from Cayman Chemicals, Ann Arbour, Mich., USA.

[11] = molecular target: T1, human recombinant CB1 receptor; test: Forskolin-induced cAMP formation in CHO cells over-expressing hCB1; assay type: cell-based; parameters: expressed in transfected cells; host or cells: CHO cells
Procedure: as §1

[12] = rat brain membranes, [14C]anandamide 6 μM, read-out: FAAH IC50
[13] = recombinant human CB1, COS cell membranes
[14] = forskolin-induced cAMP formation, CHO hCB2

T1 sequence (P21554 whole entry): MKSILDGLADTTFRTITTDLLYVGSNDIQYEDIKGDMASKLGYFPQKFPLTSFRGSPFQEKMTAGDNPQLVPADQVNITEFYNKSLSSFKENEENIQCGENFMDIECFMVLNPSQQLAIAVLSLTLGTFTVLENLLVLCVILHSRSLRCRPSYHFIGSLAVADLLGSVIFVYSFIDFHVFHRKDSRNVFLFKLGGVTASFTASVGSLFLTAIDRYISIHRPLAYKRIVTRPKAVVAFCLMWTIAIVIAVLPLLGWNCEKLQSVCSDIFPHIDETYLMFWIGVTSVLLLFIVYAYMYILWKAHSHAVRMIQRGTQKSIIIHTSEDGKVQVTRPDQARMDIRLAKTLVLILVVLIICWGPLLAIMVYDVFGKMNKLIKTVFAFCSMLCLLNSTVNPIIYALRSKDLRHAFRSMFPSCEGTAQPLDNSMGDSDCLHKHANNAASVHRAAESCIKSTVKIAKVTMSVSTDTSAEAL

CCCCCCc1ccc(O)cc1OCCCCCCCCCCC(=O)Nc1ccc(O)cc1 [Compound 53, 11-(2-Hexyl-5-hydroxy-phenoxy)-undecanoic acid (4-hydroxy-phenyl)-amide]
melting point: 108.7 °C
pKi [1]: 5.48
pIC50 [2, 12]: 4.74
pIC50 [3]: < 4.60
pKi [4]: 5.68

CCCCCCc1ccc(OCCCCCCCCCCCCCCCC(=O)NCCO)cc1O [Compound 45, 16-(3-Hydroxy-4-hexyl-phenoxy)-hexadecanoic acid (2-hydroxy-ethyl)-amide]
pIC50 [5]: < 5.00
melting point: 96.4 °C
pIC50 [6]: < 5.00

CCCCCCc1ccc(OCCCCCC(=O)NC2CC2)cc1O [Compound 40, 6-(3-Hydroxy-4-hexyl-phenoxy)-hexanoic acid cyclopropylamide]
functional behaviour at CB1 receptors ([7]; N18TG2 cells): inverse agonist/antagonist
pEC50 ([7]; N18TG2 cells, forskolin 1 μM, read-out: half-maximum effect concentration, stimulation of forskolin-induced cAMP formation): 6.82
melting point: 134.2 °C
pKi [1, 13]: 6.74
pIC50 ([2]; rat brain membranes, read-out: FAAH (n.a. class)): < 5.00
pKi [4]: 6.27

O=C(CCCCCCCCCCOc1cccc(O)c1)Nc1ccc(O)cc1 [Compound 35, 11-(3-Hydroxy-phenoxy)-undecanoic acid (4-hydroxy-phenyl)-amide]
pIC50 [5]: < 5.00
melting point: 121.2 °C

CCCCCc1cc(O)cc(OCCCCCCCCCCC(=O)NCCO)c1 [Compound 24, 11-(3-Hydroxy-5-pentyl-phenoxy)-undecanoic acid (2-hydroxy-ethyl)-amide]
melting point: 55 to 56 °C
pKi [1, 13]: 6.10
pIC50 [2]: < 5.00
pIC50 [3]: 4.60
pKi [4]: 6.80

CCCCCCc1ccc(OCCCCCCCCCCCCCCCC(=O)NC2CC2)cc1O [Compound 46, 16-(3-Hydroxy-4-hexyl-phenoxy)-hexadecanoic acid cyclopropylamide]
pIC50 [5]: < 5.00
melting point: 114.3 °C
pIC50 [6]: < 5.00

CCCCCCc1ccc(O)cc1OCCCCCCCCCCCCCCCC(=O)NCCO [Compound 54, 16-(2-Hexyl-5-hydroxy-phenoxy)-hexadecanoic acid (2-hydroxy-ethyl)-amide]
pIC50 [5]: < 5.00
melting point: 77.2 °C
pIC50 [6]: < 5.00

CCCCCCc1ccc(O)cc1OCCCCCCCCCCC(=O)NC1CC1 [Compound 52, 11-(2-Hexyl-5-hydroxy-phenoxy)-undecanoic acid cyclopropylamide]
hCB2 % effect with 10 μM [8, 14]: 5%
effect on forskolin-induced cAMP formation (in words) ([8]; CHO hCB2): no significant effect
pEC50 ([8]; forskolin-induced cAMP formation, CHO hCB2, read-out: hCB2 EC50): < 5.00
pIC50 [9]: 7.00
functional behaviour in GTP-γ-S-binding ([9]; mouse brain membranes): agonist action
antagonism of CP55940-induced stimulation of GTP-γ-S binding (in words) [10]: block the effect of CP55940
effect on GTP-γ-S-binding (in words) [10]: no significant stimulation or inhibition
functional behaviour at CB2 receptors [10]: neutral (“silent”) antagonists
Ki ([1]; values in nM): 210 nM
pIC50 [3]: 4.89
pEC50 ([11]; read-out: hCB1 EC50): 5.62
Ki [4]: 30 nM

CCCCCCc1ccc(OCCCCCCCCCCC(=O)Nc2ccc(O)cc2)cc1O [Compound 44, 11-(3-Hydroxy-4-hexyl-phenoxy)-undecanoic acid (4-hydroxy-phenyl)-amide]
pIC50 [5]: < 5.00
melting point: 121.2 °C
pIC50 [2, 12]: 4.30
pIC50 [3]: < 4.60

CCCCCc1cc(O)cc(OCCCCCCCCCCC(=O)NC2CC2)c1 [Compound 25, 11-(3-Hydroxy-5-pentyl-phenoxy)-undecanoic acid cyclopropylamide]
pEC50 [7]: 7.89
functional behaviour at CB1 receptors ([7]; N18TG2 cells): inverse agonist/antagonist
pEC50 [8]: < 5.00
hCB2 % effect with 10 μM [8, 14]: 26%
effect on forskolin-induced cAMP formation (in words) ([8]; CHO hCB2): no significant effect
functional behaviour in GTP-γ-S-binding ([9]; mouse brain membranes): agonist action
pIC50 ([9]; mouse brain membranes, read-out: IC50, stimulation of GTP-γ-S-binding): 6.82
antagonism of CP55940-induced stimulation of GTP-γ-S binding (in words) [10]: block the effect of CP55940
effect on GTP-γ-S-binding (in words) [10]: no significant stimulation or inhibition
functional behaviour at CB2 receptors [10]: neutral (“silent”) antagonists
pKi [1]: 8.28
pIC50 [2]: < 5.00
pIC50 [3]: 4.77
pEC50 [11]: 5.80
hCB1 % effect with 10 μM ([11]; 10 μM, forskolin-induced cAMP formation, CHO hCB1): 63%
functional behaviour at human recombinant CB1 ([11]; Test 1, CHO hCB1, inhibit forskolin-induced cAMP formation): partial agonists
Ki [4]: 13 nM
